Test results from PMC3961306, “Comparison of the Cancer Gene Targeting and Biochemical Selectivities of All Targeted Kinase Inhibitors Approved for Clinical Use” (PLoS ONE, 2014).
Where two headings read alike, the source gives them in different places.

Columns and labels:
[1] = tested on: forty-four human cancer cell lines; experiment: Cell proliferation assay (ATPlite, 72 hours) in the 44 cell line Oncolines panel; assay type: cell-based; settings: Homo sapiens
[2] = target: panel of more than 300 wild-type and mutant kinases (313 kinase panel) (Homo sapiens, UniProt P00533); experiment: Kinase profiling in a biochemical assay panel (mobility shift assays and ELISA), %-inhibition at 1 μM; selectivity entropy; settings: 1 µM
[3] = target: panel of more than 300 wild-type and mutant kinases (313 kinase panel) (Homo sapiens, UniProt P00533, L858R); experiment: as above; settings: 1 µM
[4] = target: panel of more than 300 wild-type and mutant kinases (313 kinase panel) (Homo sapiens, UniProt P00533, L858R/T790M); experiment: as above; settings: 1 µM
[5] = target: panel of more than 300 wild-type and mutant kinases (313 kinase panel) (Homo sapiens, UniProt P07947, T348I); experiment: as above; settings: kinase YES(T348I); compound at 1 μM
[6] = target: panel of more than 300 wild-type and mutant kinases (313 kinase panel) (Homo sapiens, UniProt P09619); experiment: as above; settings: kinase PDGFRβ; 1 μM
[7] = target: panel of more than 300 wild-type and mutant kinases (313 kinase panel) (Homo sapiens, UniProt P11362, V561M); experiment: as above; settings: kinase FGFR1(V561M); compound at 1 μM
[8] = target: panel of more than 300 wild-type and mutant kinases (313 kinase panel) (Homo sapiens, UniProt P15056); experiment: as above; settings: kinase BRAF; 1 μM compound
[9] = target: panel of more than 300 wild-type and mutant kinases (313 kinase panel) (Homo sapiens, UniProt P15056, V600E); experiment: as above; settings: kinase BRAF(V600E); 1 μM compound
[10] = target: panel of more than 300 wild-type and mutant kinases (313 kinase panel) (Homo sapiens, UniProt Q9UM73, R1275Q); experiment: as above; settings: kinase ALK(R1275Q); 1 μM compound
[11] = target: panel of more than 300 wild-type and mutant kinases (313 kinase panel) (Homo sapiens, UniProt P00533, T790M); experiment: as above; settings: kinase EGFR(T790M); compound at 1 μM
[12] = target: panel of more than 300 wild-type and mutant kinases (313 kinase panel) (Homo sapiens, UniProt P22612); experiment: as above; settings: kinase PKACγ; 1 μM
[13] = target: panel of more than 300 wild-type and mutant kinases (313 kinase panel) (Homo sapiens, UniProt P00519); experiment: as above; settings: kinase ABL; 1 μM compound
[14] = target: panel of more than 300 wild-type and mutant kinases (313 kinase panel) (Homo sapiens, UniProt P00519, E255K); experiment: as above; settings: kinase ABL(E255K); 1 μM compound
[15] = 4-4 cell, read-out: cell panel IC50, J82
[16] = 4-4 cell, read-out: cell panel IC50, PA-1
[17] = 4-4 cell, read-out: cell panel IC50, SJCRH30
[18] = 4-4 cell, read-out: cell panel IC50, SR
[19] = 769-P, read-out: cell panel IC50, 769-P
[20] = 786-0, read-out: cell panel IC50, 786-0
[21] = A 172, read-out: cell panel IC50, A-172
[22] = A204, read-out: cell panel IC50, A-204
[23] = A498, read-out: cell panel IC50, A-498
[24] = A549, read-out: cell panel IC50, A-549
[25] = A-375, read-out: cell panel IC50, A375
[26] = A-427, read-out: cell panel IC50, A-427
[27] = AN3-CA, read-out: cell panel IC50, AN3 CA
[28] = AU565, read-out: cell panel IC50, AU-565
[29] = BT-20, read-out: cell panel IC50, BT-20
[30] = BT-549, read-out: cell panel IC50, BT-549
[31] = BXPC-3, read-out: cell panel IC50, BxPC-3
[32] = C-33-A, read-out: cell panel IC50, C-33 A
[33] = CAL-27, read-out: cell panel IC50, CAL 27
[34] = CCRF-CEM, read-out: cell panel IC50, CCRF-CEM
[35] = DLD-1, read-out: cell panel IC50, DLD-1
[36] = FaDu, read-out: cell panel IC50, FaDu
[37] = HCT-15, read-out: cell panel IC50, HCT-15
[38] = HCT-116, read-out: cell panel IC50, HCT-116
[39] = Hs-578T, read-out: cell panel IC50, Hs 578T
[40] = Jurkat E6.1, read-out: cell panel IC50, Jurkat E6.1
[41] = K562, read-out: cell panel IC50, K-562
[42] = LS174T, read-out: cell panel IC50, LS 174T
[43] = LoVo, read-out: cell panel IC50, LoVo
[44] = MG-63, read-out: cell panel IC50, MG-63
[45] = MOLT-4, read-out: cell panel IC50, MOLT-4
[46] = MeWo, read-out: cell panel IC50, MeWo
[47] = NCI-H82, read-out: cell panel IC50, NCI-H82
[48] = NCI-H460, read-out: cell panel IC50, NCI-H460
[49] = OVCAR-3, read-out: cell panel IC50, OVCAR-3
[50] = RPMI-7951, read-out: cell panel IC50, RPMI-7951
[51] = SHP77, read-out: cell panel IC50, SHP-77
[52] = SK-N-AS, read-out: cell panel IC50, SK-N-AS
[53] = SW48, read-out: cell panel IC50, SW48
[54] = SW480, read-out: cell panel IC50, SW480
[55] = SW-620, read-out: cell panel IC50, SW620
[56] = U2OS, read-out: cell panel IC50, U-2 OS
[57] = U-87 MG, 72 h, read-out: IC50 in cell proliferation assay (table S5 cellpanel data)
[58] = ACHN, read-out: cell panel IC50, ACHN

## Cc1ccc(C(=O)Nc2ccc(CN3CCN(C)CC3)c(C(F)(F)F)c2)cc1C#Cc1cnc2cccnn12 [ponatinib]
[1]; [15]
  IC50: 1.53 µM
[1]; [16]
  IC50: 0.814 µM
[1]; [17]
  IC50: 1.11 µM
[1]; [18]
  IC50: 0.836 µM
[1]; [19]
  IC50: 1.8 µM
[1]; [20]
  IC50: 1.87 µM
[1]; [21]
  IC50: 0.626 µM
[1]; [22]
  IC50: 0.092 µM
[1]; [23]
  IC50: 1.32 µM
[1]; [24]
  IC50: 1.15 µM
[1]; [25]
  IC50: 1.14 µM
[1]; [26]
  IC50: 0.352 µM
[1]; [27]
  IC50: 0.124 µM
[1]; [28]
  IC50: 1.42 µM
[1]; [29]
  IC50: 5.12 µM
[1]; [30]
  IC50: 1.85 µM
[1]; [31]
  IC50: 0.817 µM
[1]; [32]
  IC50: 1 µM
[1]; [33]
  IC50: 1.73 µM
[1]; [34]
  IC50: 2.25 µM
[1]; [35]
  IC50: 1.13 µM
[1]; [36]
  IC50: 1.11 µM
[1]; [37]
  IC50: 0.913 µM
[1]; [38]
  IC50: 1.21 µM
[1]; [39]
  IC50: 1.18 µM
[1]; [40]
  IC50: 0.403 µM
[1]; [41]
  IC50: 0.0065 µM
[1]; [42]
  IC50: 2.05 µM
[1]; [43]
  IC50: 0.38 µM
[1]; [44]
  IC50: 2.48 µM
[1]; [45]
  IC50: 0.977 µM
[1]; [46]
  IC50: 2.22 µM
[1]; [47]
  IC50: 1.1 µM
[1]; [48]
  IC50: 1.43 µM
[1]; [49]
  IC50: 2.95 µM
[1]; [50]
  IC50: 1.15 µM
[1]; [51]
  IC50: 6.49 µM
[1]; [52]
  IC50: 1.08 µM
[1]; [53]
  IC50: 1.55 µM
[1]; [54]
  IC50: 2.17 µM
[1]; [55]
  IC50: 0.799 µM
[1]; [56]
  IC50: 1.11 µM
[1]; [57]
  IC50: 3.1 µM
[2]
  %-inhibition of EGFR: 97%
[3]
  %-inhibition of EGFR(L858R): 95%
[4]
  %-inhibition of EGFR(T790M/L858R): 49%
[5]
  %-inhibition of YES(T348I): 96%
[6]
  %-inhibition of PDGFRβ: 102%
[7]
  %-inhibition of FGFR1(V561M): 98%
[8]
  %-inhibition, BRAF: 89%
[9]
  %-inhibition, BRAF(V600E): 84%
[10]
  %-inhibition, ALK(R1275Q): 45%

## COc1cc(Nc2c(C#N)cnc3cc(OCCCN4CCN(C)CC4)c(OC)cc23)c(Cl)cc1Cl [bosutinib]
[1]; [15]
  IC50: 4.47 µM
[1]; [16]
  IC50: 1.26 µM
[1]; [17]
  IC50: 4.39 µM
[1]; [18]
  IC50: 0.983 µM
[1]; [19]
  IC50: 1.24 µM
[1]; [20]
  IC50: 2.2 µM
[1]; [21]
  IC50: 3.69 µM
[1]; [22]
  IC50: 5.69 µM
[1]; [23]
  IC50: 1.51 µM
[1]; [24]
  IC50: 2.38 µM
[1]; [25]
  IC50: 2 µM
[1]; [26]
  IC50: 2.32 µM
[1]; [58]
  IC50: 0.808 µM
[1]; [27]
  IC50: 8.02 µM
[1]; [28]
  IC50: 4.03 µM
[1]; [29]
  IC50: 9 µM
[1]; [30]
  IC50: 4.94 µM
[1]; [31]
  IC50: 2.74 µM
[1]; [32]
  IC50: 0.108 µM
[1]; [33]
  IC50: 1.69 µM
[1]; [34]
  IC50: 3.55 µM
[1]; [35]
  IC50: 2.25 µM
[1]; [36]
  IC50: 1.93 µM
[1]; [37]
  IC50: 2.05 µM
[1]; [38]
  IC50: 2.9 µM
[1]; [39]
  IC50: 3.63 µM
[1]; [40]
  IC50: 0.466 µM
[1]; [41]
  IC50: 0.014 µM
[1]; [42]
  IC50: 1.18 µM
[1]; [43]
  IC50: 0.811 µM
[1]; [44]
  IC50: 4.21 µM
[1]; [45]
  IC50: 1.29 µM
[1]; [46]
  IC50: 5.6 µM
[1]; [47]
  IC50: 3.5 µM
[1]; [48]
  IC50: 3.72 µM
[1]; [49]
  IC50: 3.03 µM
[1]; [50]
  IC50: 3.23 µM
[1]; [51]
  IC50: 11.5 µM
[1]; [52]
  IC50: 0.923 µM
[1]; [53]
  IC50: 11.7 µM
[1]; [54]
  IC50: 10.5 µM
[1]; [55]
  IC50: 10.6 µM
[1]; [56]
  IC50: 2.62 µM
[1]; [57]
  IC50: 6.95 µM
[11]
  %-inhibition of EGFR(T790M): 87%
[6]
  %-inhibition of PDGFRβ: 95%
[12]
  %-inhibition of PKACγ: 53%
[10]
  %-inhibition, ALK(R1275Q): 61%

## CS(=O)(=O)CCNCc1ccc(-c2ccc3ncnc(Nc4ccc(OCc5cccc(F)c5)c(Cl)c4)c3c2)o1 [lapatinib]
[1]; [15]
  IC50: 15.5 µM
[1]; [16]
  IC50: 12.4 µM
[1]; [17]
  IC50: 12.3 µM
[1]; [18]
  IC50: 7.6 µM
[1]; [19]
  IC50: 8.8 µM
[1]; [20]
  IC50: 11.5 µM
[1]; [21]
  IC50: 13.8 µM
[1]; [22]
  IC50: 10.6 µM
[1]; [23]
  IC50: 9.97 µM
[1]; [24]
  IC50: 15.6 µM
[1]; [25]
  IC50: 14.9 µM
[1]; [26]
  IC50: 12.7 µM
[1]; [58]
  IC50: 5.79 µM
[1]; [27]
  IC50: 12 µM
[1]; [28]
  IC50: 0.137 µM
[1]; [29]
  IC50: 17.3 µM
[1]; [30]
  IC50: 16.7 µM
[1]; [31]
  IC50: 6.59 µM
[1]; [32]
  IC50: 0.446 µM
[1]; [33]
  IC50: 2.56 µM
[1]; [34]
  IC50: 10.1 µM
[1]; [35]
  IC50: 12.9 µM
[1]; [36]
  IC50: 0.902 µM
[1]; [37]
  IC50: 8.92 µM
[1]; [38]
  IC50: 13.8 µM
[1]; [39]
  IC50: 14.6 µM
[1]; [40]
  IC50: 7.05 µM
[1]; [41]
  IC50: 14.2 µM
[1]; [42]
  IC50: 7.07 µM
[1]; [43]
  IC50: 9.08 µM
[1]; [44]
  IC50: 12.3 µM
[1]; [45]
  IC50: 8.79 µM
[1]; [46]
  IC50: 14.5 µM
[1]; [47]
  IC50: 11.7 µM
[1]; [48]
  IC50: 16.2 µM
[1]; [49]
  IC50: > 31.6 µM
[1]; [50]
  IC50: 13.7 µM
[1]; [51]
  IC50: 14.1 µM
[1]; [52]
  IC50: 12.7 µM
[1]; [53]
  IC50: 22.8 µM
[1]; [54]
  IC50: 13.2 µM
[1]; [55]
  IC50: 21.1 µM
[1]; [56]
  IC50: 12.9 µM
[1]; [57]
  IC50: 10.5 µM
[13]
  %-inhibition, ABL: 17%
[14]
  %-inhibition, ABL(E255K): -4.67%
[6]
  %-inhibition of PDGFRβ: 2.84%
